Activity calls are given as the source filed them. No cut-off for these calls is given here.
How the values were obtained:
TGF-beta receptor type-1 [1] = target: T1, TGF-beta receptor type-1 (Homo sapiens, UniProt P36897); format: single protein
T1 sequence (P36897 whole entry): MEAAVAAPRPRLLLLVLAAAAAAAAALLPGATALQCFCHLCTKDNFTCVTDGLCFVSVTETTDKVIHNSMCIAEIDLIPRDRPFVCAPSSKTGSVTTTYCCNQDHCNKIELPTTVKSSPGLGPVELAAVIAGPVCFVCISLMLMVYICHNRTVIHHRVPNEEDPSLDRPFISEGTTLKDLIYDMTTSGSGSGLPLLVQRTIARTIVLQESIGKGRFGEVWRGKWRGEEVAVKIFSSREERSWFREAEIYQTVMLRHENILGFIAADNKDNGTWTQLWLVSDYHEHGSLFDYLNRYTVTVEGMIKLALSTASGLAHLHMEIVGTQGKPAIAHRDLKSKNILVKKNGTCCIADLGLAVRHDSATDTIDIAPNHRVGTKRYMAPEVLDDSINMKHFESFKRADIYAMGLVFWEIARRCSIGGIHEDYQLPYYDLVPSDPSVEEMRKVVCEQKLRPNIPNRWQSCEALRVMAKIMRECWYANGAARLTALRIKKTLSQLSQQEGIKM
Description: Inhibition of human ALK5 using casein as substrate in presence of 10 uM [gamma33P] ATP by radioactive assay

TGF-beta receptor type-1 [2] = target: T1, TGF-beta receptor type-1; format: cell-based, HEK293
Description: Inhibition of ALK5 (unknown origin) expressed in HEK293 cells transfected with CAGA-luciferase and Renilla luciferase reporter measured after 24 hrs by dual luciferase reporter assay

Activin receptor type-1 [3] = target: T2, Activin receptor type-1 (Homo sapiens, UniProt Q04771)
T2 sequence (Q04771 whole entry): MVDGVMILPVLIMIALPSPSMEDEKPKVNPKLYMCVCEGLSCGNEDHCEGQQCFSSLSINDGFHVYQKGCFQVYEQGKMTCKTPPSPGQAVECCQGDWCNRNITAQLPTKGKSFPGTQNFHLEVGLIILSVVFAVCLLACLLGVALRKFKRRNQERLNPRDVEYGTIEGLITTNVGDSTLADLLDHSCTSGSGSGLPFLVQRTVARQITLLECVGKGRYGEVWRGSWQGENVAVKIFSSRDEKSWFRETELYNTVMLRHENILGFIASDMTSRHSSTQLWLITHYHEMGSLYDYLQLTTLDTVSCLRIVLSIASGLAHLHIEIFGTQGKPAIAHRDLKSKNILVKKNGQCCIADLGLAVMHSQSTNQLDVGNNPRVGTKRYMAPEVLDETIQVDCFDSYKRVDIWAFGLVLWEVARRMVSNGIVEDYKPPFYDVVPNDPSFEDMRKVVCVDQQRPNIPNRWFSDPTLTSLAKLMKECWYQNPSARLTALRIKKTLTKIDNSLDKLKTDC
Description: Inhibition of human ALK2 using casein as substrate in presence of 10 uM [gamma33P] ATP by radioactive assay

Activin receptor type-1 [4] = target: T2, Activin receptor type-1; experiment: Inhibition of C-terminal nanoluciferase-fused ALK2 (unknown origin) expressed in HEK293 cells incubated for 2 hrs followed by NanoBRET NanoGlo Substrate addition by NanoBRET assay; format: cell-based
Activin receptor type-1 [5] = target: Activin receptor type-1 (Homo sapiens, UniProt Q04771, G328V); experiment: Inhibition of ALK2 G328V mutant (unknown origin)
Activin receptor type-1 (Homo sapiens, UniProt Q04771, G328V), sequence (Q04771 21-509 G328V limits assumed): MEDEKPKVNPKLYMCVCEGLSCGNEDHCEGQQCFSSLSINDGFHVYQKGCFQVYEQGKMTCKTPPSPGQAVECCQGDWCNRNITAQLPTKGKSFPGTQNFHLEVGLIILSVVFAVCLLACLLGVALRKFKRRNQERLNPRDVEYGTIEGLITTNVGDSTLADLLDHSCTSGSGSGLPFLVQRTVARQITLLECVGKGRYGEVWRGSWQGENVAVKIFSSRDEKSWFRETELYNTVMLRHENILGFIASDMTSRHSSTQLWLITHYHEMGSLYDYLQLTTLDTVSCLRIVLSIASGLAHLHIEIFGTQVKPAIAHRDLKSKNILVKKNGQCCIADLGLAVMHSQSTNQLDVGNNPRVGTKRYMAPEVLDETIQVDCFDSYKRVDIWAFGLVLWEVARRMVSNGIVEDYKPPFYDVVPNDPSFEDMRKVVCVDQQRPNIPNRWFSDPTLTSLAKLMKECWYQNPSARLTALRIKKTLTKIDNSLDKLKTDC

Activin receptor type-1 [6] = target: Activin receptor type-1 (Homo sapiens, UniProt Q04771, R206H); experiment: Inhibition of human ALK2 R206H mutant using casein as substrate in presence of 10 uM [gamma33P] ATP by radioactive assay
Activin receptor type-1 (Homo sapiens, UniProt Q04771, R206H), sequence (Q04771 21-509 R206H limits assumed): as the sequence (Q04771 21-509 G328V limits assumed) above, with R186H, V308G counted along it

Activin receptor type-1 [7] = target: Activin receptor type-1 (Homo sapiens, UniProt Q04771, R258G); experiment: Inhibition of ALK2 R258G mutant (unknown origin)
Activin receptor type-1 (Homo sapiens, UniProt Q04771, R258G), sequence (Q04771 21-509 R258G limits assumed): as the sequence (Q04771 21-509 G328V limits assumed) above, with R238G, V308G counted along it

[8] = mouse, in vivo, po, 10 mg/kg, 24 h
[9] = mouse, in vivo, po, 10 mg/kg, 24 h; remark: listed apart in the source
[10] = mouse, in vivo, po, 10 mg/kg, 24 h; remark: listed apart in the source
Description: Half life in CB17 SCID mouse at 10 mg/kg, po measured up to 24 hrs by LC-MS/MS analysis

[11] = mouse, microsomes, 1 h, 1 µM
Description: Microsomal stability in CD-1 mouse liver microsomes assessed as parent compound remaining at 1 uM and 37 degree C measured after 60 mins in presence of NADP+ by LC-QTOF/MS analysis

[12] = human, microsomes, 1 h, 1 µM
Description: Microsomal stability in human liver microsomes assessed as parent compound remaining at 1 uM and 37 degree C measured after 60 mins in presence of NADP+ by LC-QTOF/MS analysis

in vitro [13] = conditions: human, Caco-2
Description: Apparent permeability across apical to basolateral membrane in human Caco2 cells at 5 uM incubated for 120 mins in orbital shaker by LC-QTOF/MS analysis

in vitro [14] = conditions: human, Caco-2; remark: listed apart in the source
Description: Apparent permeability across basolateral to apical membrane in human Caco2 cells at 5 uM incubated for 120 mins in orbital shaker by LC-QTOF/MS analysis

[15] = target: Activin receptor type-1-like (Homo sapiens) (UniProt P37023); experiment: Inhibition of ALK1 (unknown origin) at 1 uM
Activin receptor type-1-like (Homo sapiens), sequence (P37023 whole entry): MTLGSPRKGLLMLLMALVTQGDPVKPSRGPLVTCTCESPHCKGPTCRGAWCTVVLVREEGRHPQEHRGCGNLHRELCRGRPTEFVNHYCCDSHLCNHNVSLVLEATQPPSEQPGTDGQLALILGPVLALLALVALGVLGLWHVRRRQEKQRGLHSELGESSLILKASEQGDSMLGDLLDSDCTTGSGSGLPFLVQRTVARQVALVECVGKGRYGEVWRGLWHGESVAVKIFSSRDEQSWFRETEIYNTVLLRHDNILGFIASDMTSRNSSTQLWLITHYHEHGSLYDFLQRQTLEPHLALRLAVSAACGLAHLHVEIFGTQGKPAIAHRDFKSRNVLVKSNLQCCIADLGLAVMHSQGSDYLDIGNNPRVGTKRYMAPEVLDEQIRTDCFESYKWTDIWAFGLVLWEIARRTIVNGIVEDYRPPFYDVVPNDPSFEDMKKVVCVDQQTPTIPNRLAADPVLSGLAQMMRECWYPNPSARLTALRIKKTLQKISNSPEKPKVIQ

[16] = target: Bone morphogenetic protein receptor type-1A (Homo sapiens) (UniProt P36894); experiment: Inhibition of ALK3 (unknown origin) at 1 uM
Bone morphogenetic protein receptor type-1A (Homo sapiens), sequence (P36894 whole entry): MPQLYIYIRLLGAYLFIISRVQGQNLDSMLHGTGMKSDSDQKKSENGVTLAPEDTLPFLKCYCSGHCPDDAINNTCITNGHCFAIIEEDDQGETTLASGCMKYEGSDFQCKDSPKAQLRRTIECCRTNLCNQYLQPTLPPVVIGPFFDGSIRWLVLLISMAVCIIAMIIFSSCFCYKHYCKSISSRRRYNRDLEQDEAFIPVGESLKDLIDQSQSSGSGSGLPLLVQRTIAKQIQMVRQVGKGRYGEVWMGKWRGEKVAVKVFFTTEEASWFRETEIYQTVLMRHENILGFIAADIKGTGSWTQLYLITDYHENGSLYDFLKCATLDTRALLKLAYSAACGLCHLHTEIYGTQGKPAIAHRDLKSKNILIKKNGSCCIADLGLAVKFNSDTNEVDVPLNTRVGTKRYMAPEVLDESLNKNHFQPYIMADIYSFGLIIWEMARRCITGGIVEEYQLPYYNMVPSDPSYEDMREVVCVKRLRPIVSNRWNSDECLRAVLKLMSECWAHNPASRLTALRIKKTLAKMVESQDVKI

[17] = target: Bone morphogenetic protein receptor type-1B (Homo sapiens) (UniProt O00238); experiment: Inhibition of ALK6 (unknown origin) at 1 uM
Bone morphogenetic protein receptor type-1B (Homo sapiens), sequence (O00238 whole entry): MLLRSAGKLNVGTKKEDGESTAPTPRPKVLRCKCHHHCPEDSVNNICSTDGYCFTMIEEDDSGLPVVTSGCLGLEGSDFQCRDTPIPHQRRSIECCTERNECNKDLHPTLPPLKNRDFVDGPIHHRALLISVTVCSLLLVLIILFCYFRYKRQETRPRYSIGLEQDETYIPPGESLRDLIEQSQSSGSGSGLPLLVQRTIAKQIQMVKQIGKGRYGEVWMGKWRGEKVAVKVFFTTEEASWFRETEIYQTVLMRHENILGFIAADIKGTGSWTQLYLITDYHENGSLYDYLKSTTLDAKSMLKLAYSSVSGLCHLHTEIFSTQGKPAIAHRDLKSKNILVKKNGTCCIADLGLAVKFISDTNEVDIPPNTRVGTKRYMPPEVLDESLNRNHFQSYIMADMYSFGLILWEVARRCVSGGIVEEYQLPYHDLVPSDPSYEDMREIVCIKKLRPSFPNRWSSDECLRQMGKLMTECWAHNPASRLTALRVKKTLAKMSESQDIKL

[18] = target: T3, Serine/threonine-protein kinase A-Raf (Homo sapiens) (UniProt P10398); experiment: Inhibition of ARAF (unknown origin) at 1 uM
T3 sequence (whole entry): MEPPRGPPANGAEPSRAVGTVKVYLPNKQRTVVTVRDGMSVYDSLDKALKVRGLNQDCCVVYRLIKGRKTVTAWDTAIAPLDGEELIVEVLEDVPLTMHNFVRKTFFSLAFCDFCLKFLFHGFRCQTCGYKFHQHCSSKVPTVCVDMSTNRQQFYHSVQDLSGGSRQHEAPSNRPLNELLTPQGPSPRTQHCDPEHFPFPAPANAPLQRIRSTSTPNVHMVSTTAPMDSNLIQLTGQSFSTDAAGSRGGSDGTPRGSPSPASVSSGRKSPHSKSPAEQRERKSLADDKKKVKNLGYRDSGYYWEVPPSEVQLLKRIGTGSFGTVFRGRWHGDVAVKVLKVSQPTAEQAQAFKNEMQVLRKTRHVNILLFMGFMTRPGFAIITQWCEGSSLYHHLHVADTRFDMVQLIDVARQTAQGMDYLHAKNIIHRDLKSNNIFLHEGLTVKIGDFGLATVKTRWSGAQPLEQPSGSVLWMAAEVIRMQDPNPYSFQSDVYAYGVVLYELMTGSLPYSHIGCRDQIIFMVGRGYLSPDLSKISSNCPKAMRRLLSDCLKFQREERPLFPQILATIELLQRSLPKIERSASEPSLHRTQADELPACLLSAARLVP

[19] = target: Mitogen-activated protein kinase kinase kinase kinase 4 (Homo sapiens) (UniProt O95819); experiment: Inhibition of MAP4K4 (unknown origin) at 1 uM
Mitogen-activated protein kinase kinase kinase kinase 4 (Homo sapiens), sequence (O95819 2-1239 limits assumed): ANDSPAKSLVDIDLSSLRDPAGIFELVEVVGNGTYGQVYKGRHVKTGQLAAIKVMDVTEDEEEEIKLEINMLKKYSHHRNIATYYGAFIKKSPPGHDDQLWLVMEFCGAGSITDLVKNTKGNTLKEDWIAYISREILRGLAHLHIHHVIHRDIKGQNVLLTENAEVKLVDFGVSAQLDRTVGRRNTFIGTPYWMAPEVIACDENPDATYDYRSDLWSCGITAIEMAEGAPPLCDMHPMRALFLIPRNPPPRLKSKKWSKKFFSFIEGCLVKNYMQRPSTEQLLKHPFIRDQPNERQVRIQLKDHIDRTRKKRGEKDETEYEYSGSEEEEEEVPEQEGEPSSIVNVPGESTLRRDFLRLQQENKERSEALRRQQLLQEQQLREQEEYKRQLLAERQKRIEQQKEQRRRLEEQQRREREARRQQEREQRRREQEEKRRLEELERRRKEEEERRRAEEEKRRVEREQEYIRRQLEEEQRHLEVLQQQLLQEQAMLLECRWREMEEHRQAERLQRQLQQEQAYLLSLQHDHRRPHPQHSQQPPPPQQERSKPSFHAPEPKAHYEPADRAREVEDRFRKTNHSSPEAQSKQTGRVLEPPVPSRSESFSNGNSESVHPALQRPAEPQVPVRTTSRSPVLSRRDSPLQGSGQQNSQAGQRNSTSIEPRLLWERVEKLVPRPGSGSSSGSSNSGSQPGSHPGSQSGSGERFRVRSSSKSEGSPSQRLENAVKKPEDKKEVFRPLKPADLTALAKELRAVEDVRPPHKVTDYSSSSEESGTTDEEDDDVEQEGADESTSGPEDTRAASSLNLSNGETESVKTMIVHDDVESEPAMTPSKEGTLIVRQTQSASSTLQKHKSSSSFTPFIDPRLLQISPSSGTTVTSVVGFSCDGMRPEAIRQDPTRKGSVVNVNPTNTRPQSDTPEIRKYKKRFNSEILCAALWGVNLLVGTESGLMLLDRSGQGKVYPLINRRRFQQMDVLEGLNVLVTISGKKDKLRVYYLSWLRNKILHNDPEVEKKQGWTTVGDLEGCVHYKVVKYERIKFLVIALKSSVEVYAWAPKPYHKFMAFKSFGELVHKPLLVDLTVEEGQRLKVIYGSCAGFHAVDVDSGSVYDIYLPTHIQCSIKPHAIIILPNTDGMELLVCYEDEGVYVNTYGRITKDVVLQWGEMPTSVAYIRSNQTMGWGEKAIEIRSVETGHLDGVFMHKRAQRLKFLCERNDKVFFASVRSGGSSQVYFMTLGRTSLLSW

[20] = target: Misshapen-like kinase 1 (Homo sapiens) (UniProt Q8N4C8); experiment: Inhibition of MINK (unknown origin) at 1 uM
Misshapen-like kinase 1 (Homo sapiens), sequence (Q8N4C8 whole entry, looked up): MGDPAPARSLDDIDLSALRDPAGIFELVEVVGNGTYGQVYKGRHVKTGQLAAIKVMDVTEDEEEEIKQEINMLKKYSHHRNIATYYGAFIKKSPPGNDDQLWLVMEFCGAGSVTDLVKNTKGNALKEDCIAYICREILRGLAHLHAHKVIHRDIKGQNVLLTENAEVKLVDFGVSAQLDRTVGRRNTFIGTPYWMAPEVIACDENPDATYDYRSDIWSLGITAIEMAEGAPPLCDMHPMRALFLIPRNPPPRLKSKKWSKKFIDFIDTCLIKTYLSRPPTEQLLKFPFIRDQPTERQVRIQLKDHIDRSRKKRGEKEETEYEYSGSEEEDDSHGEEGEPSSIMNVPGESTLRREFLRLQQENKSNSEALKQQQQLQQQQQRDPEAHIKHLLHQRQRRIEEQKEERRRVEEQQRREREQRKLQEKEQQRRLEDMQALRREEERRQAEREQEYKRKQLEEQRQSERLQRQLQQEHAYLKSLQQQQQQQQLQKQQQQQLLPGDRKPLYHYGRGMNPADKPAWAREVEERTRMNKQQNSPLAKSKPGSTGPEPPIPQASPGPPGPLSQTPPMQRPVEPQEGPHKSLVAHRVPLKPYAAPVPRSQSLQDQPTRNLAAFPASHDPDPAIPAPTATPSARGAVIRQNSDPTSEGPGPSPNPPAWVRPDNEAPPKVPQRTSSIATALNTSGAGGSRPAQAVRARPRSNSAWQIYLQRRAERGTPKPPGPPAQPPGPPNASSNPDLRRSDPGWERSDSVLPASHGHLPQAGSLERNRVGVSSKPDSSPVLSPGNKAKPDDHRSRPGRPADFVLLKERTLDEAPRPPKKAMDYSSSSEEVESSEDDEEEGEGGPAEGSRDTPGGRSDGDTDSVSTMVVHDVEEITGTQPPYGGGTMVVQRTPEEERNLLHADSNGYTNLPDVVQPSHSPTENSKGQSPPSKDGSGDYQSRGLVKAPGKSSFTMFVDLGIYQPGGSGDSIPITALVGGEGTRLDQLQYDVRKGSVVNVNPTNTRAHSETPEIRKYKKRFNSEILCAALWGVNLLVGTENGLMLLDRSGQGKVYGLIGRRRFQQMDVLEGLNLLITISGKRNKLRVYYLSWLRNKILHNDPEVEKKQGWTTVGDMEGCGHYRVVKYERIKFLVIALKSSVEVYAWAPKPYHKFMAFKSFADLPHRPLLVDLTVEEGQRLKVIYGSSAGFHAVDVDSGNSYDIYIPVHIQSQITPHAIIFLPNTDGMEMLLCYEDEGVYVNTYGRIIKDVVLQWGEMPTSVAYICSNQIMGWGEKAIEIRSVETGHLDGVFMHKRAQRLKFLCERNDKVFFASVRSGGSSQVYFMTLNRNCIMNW

[21] = target: T4, Non-receptor tyrosine-protein kinase TNK1 (Homo sapiens) (UniProt Q13470); experiment: Inhibition of TNK1 (unknown origin) at 1 uM
T4 sequence (whole entry): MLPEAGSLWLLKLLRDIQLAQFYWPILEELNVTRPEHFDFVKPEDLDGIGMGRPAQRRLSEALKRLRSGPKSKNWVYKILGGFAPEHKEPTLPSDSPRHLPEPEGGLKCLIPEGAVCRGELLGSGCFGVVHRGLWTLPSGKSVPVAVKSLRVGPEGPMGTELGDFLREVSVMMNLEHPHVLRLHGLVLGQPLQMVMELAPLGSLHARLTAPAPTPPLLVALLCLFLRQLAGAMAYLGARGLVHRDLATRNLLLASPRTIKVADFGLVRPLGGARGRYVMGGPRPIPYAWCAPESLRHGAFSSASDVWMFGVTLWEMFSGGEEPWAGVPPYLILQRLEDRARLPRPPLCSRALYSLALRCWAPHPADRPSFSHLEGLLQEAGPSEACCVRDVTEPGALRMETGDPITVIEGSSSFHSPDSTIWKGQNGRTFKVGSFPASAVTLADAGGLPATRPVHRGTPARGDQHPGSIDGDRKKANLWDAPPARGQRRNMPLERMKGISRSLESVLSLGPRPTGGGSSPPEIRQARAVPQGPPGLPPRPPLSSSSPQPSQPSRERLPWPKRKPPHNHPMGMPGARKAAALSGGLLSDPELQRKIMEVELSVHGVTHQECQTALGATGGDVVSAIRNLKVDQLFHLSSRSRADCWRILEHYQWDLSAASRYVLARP

[22] = target: Voltage-gated inwardly rectifying potassium channel KCNH2 (Homo sapiens, UniProt Q12809)
Description: Inhibition of human ERG expressed in HEK293 cells measured after 5 mins by whole cell patch clamp method

| Structure (SMILES) | IC50 (TGF-beta receptor type-1 [1]) [µM] | IC50 (TGF-beta receptor type-1 [2]) [µM] | IC50 (Activin receptor type-1 [3]) [µM] | IC50 (Activin receptor type-1 [4]) [µM] | further results |
| --- | --- | --- | --- | --- | --- |
| COc1cc(-c2cncc(-c3ccc(N4C[C@@H](C)N(C)[C@@H](C)C4)cc3)c2C)cc(OC)c1C(N)=O | 0.052 | 0.283 | 0.003 |  |  |
| COc1cc(-c2cncc(-c3ccc(N4CCNCC4)cc3)c2C)cc(F)c1C(N)=O |  |  |  | 0.081 | IC50 (Activin receptor type-1 [5]): 0.004 µM; IC50 (Activin receptor type-1 [6]): 0.008 µM; IC50 (Activin receptor type-1 [7]): 0.007 µM; Cmax [8]: 97 ng/mL; AUC [9]: 296 ng·h/mL; t1/2 [10]: 1.31 h; Stability [11]: > 85%; Stability [12]: > 85%; Papp A→B at 2 h, 5 µM (in vitro [13]): 0.3 ×10⁻⁶ cm/s; Papp B→A at 2 h, 5 µM (in vitro [14]): 10.7 ×10⁻⁶ cm/s |
| Cc1c(-c2ccc(N3CCNCC3)cc2)cncc1-c1ccc2c(c1)CNC2=O | > 5 | 4.81 |  | 2.34 | IC50 (Activin receptor type-1 [5]): 0.171 µM; IC50 (Activin receptor type-1 [6]): 0.226 µM; IC50 (Activin receptor type-1 [7]): 0.363 µM |
| CNC(=O)c1ccc(-c2cncc(-c3ccc(N4CCNCC4)cc3)c2C)cc1OC | > 5 | > 5 | > 1 | > 5 |  |
| COc1cc(C(N)=O)cc(-c2cncc(-c3ccc(N4CCNCC4)cc3)c2C)c1 | > 5 | > 5 | 0.102 | 0.588 |  |
| COc1c(C(N)=O)csc1-c1cncc(-c2ccc(N3CCNCC3)cc2)c1C | > 5 | > 5 | > 1 | > 5 |  |
| COc1cc(-c2cncc(-c3ccc(N4CCN(C(C)C)CC4)cc3)c2C)cc(F)c1C(N)=O |  |  |  |  | inhibition [15]: Active; inhibition [16]: Active; inhibition [17]: Active; inhibition [18]: Active; inhibition [19]: Active; inhibition [20]: Active; inhibition [21]: Active |
| COc1cc(-c2cncc(-c3ccc(N4CCNCC4)cc3)c2C)sc1C(N)=O | > 5 | > 5 | 0.751 | 3.37 |  |
| COc1cc(-c2cncc(-c3ccc(N4CCNCC4)cc3)c2C)ccc1C(N)=O |  |  |  | 0.055 | IC50 (Activin receptor type-1 [5]): 0.005 µM; IC50 (Activin receptor type-1 [6]): 0.009 µM; IC50 (Activin receptor type-1 [7]): 0.009 µM |
| COc1ccc(-c2cncc(-c3ccc(N4CCNCC4)cc3)c2C)cc1C(N)=O | > 5 | > 5 | > 1 | 0.694 |  |
| COc1cc(-c2cncc(-c3ccc(N4CCN(C(C)C)CC4)cc3)c2C)cc(OC)c1C(N)=O | 0.066 | 0.276 | 0.005 | 0.018 |  |
| COc1cc(-c2cncc(-c3ccc(N4CCNCC4)cc3)c2C)ccc1C(=O)N(C)C | > 5 | > 5 | > 1 | > 5 |  |
| COCc1cc(-c2cncc(-c3ccc(N4CCNCC4)cc3)c2C)ccc1C(N)=O | > 5 | > 5 | 0.687 | 3.84 |  |
| COc1c(-c2cncc(-c3ccc(N4CCNCC4)cc3)c2C)csc1C(N)=O | > 5 | > 5 | 0.712 | 2.81 |  |
| COc1cc(-c2cncc(-c3ccc(N4CCN(C)CC4)cc3)c2C)cc(OC)c1C(N)=O | 0.075 | 0.249 | < 0.003 | 0.019 | IC50 (Activin receptor type-1 [5]): < 0.002 µM; IC50 (Activin receptor type-1 [6]): 0.004 µM; IC50 (Activin receptor type-1 [7]): < 0.002 µM |
| COc1cc(-c2cncc(-c3ccc(N4CCNCC4)cc3)c2C)cc(OC)c1C(N)=O |  |  |  | 0.178 |  |
| COc1cc(-c2cncc(-c3ccc(N4C[C@@H](C)N(C)[C@@H](C)C4)cc3)c2C)cc(F)c1C(N)=O | 2.91 | > 5 | 0.01 | 0.1 | inhibition [15]: Active; inhibition [16]: Active; inhibition [17]: Active; inhibition [18]: Active; inhibition [19]: Active; inhibition [20]: Active; inhibition [21]: Active; IC50 [22]: 19 µM; Stability [11]: Stable; Stability [12]: Stable; Papp A→B at 2 h, 5 µM (in vitro [13]): 4.3 ×10⁻⁶ cm/s; Papp B→A at 2 h, 5 µM (in vitro [14]): 14.5 ×10⁻⁶ cm/s |
| COc1cc(-c2cncc(-c3ccc(N4CCNCC4)cc3)c2C)cc(Cl)c1C(N)=O | 2.08 | > 5 |  | 0.093 | IC50 (Activin receptor type-1 [5]): < 0.002 µM; IC50 (Activin receptor type-1 [6]): 0.005 µM; IC50 (Activin receptor type-1 [7]): 0.004 µM |
| Cc1c(-c2ccc(C(N)=O)cc2)cncc1-c1ccc(N2CCNCC2)cc1 | > 5 | > 5 | 0.477 | 2.77 |  |
| Cc1c(-c2ccc(N3CCNCC3)cc2)cncc1-c1ccc(C(N)=O)c(F)c1 | > 5 | > 5 | 0.263 | 1.01 |  |
